Measured values from patent publication US20190328721A1, “METHOD OF ACTIVATING DENDRITIC CELLS” (KOREA INSTITUTE OF SCIENCE AND TECHNOLOGY, priority 2018, published 2019).

How the values were obtained:
[1] = system: bone marrow-derived dendritic cells (BMDCs); test: Phagocytosis of cancer cells by bone marrow-derived dendritic cells in vitro; type: cell-based, mice
Method: Specifically, the present inventors prepared bone marrow-derived macrophages (BMDMs) differentiated from excised bone marrow of mice using M-CSF and bone marrow-derived dendritic cells (BMDCs) differentiated from excised bone marrow using Flt3L. The degree of differentiation was confirmed by flow cytometry analysis using antibodies specifically binding to F4/80 (BMDM marker) and CD11c (BMDC marker), respectively (FIGS. 2A and 2B).
The prepared BMDMs and BMDCs were stained with 1 μM CellTracker Deep Red (Thermo Fisher Scientific, USA). 30 μM of Y27632 (Abcam, USA) or 30 μM of fasudil (Selleck Chemicals, USA) was added to each of 15×10^4 cells/ml of the stained macrophages and dendritic cells and incubated at 37° C. for 1 hour. As a negative control, macrophages or dendritic cells that were not incubated with Y27632 and fasudil were used.
Bone marrow-derived macrophages or dendritic cells prepared in RPMI medium and cancer cell lines stained with 1 μM CellTracker CMFDA (Thermo Fisher Scientific, USA) were co-cultured at about 37° C. for about 2 hours. CT26.CL25, a colon cancer cell line, and B16F10-OVA, a melanoma cell line, were used as the cancer cells.
Thereafter, the percentage of cancer cells was measured by flow cytometry, and the phagocytosis ratio of macrophages and dendritic cells against cancer cells was calculated. The results are shown in FIGS. 2C to 2F (left: cancer cell line CT26.CL25, right: cancer cell line B16F10-OVA).
In order to more accurately analyze the phagocytosis of macrophages and dendritic cells against cancer cells according to the treatment of the ROCK inhibitor, the present inventors analyzed phagocytosis of the BMDMs and BMDCs against CT26.CL25 colon cancer cells using the pHrodo-SE dye, which changes in fluorescence depending on pH. When […], the pH of the cancer cells decreased and became red. When treated with Y27632 as described above for the above-mentioned phagocytosis response, the phagocytic activities of both the BMDMs and BMDCs against cancer cells were improved.
The present inventors performed an experiment to confirm how long the phagocytosis of BMDMs and BMDCs against cancer cells due to the ROCK inhibitor is maintained. Specifically, BMDMs and BMDCs were pretreated with Y27632 for 1 hour, then Y27632 was removed, and immediately after 30 minutes, 1 hour, 2 hours, or 4 hours, the phagocytosis against CT26.CL25 and B16F10-Ova was measured using a flow cytometer. The other experimental conditions were the same as in Example 1-1.
In order to confirm whether the ROCK inhibitor increases phagocytosis against cancer cells by acting on phagocytic cells (BMDMs or BMDCs) themselves, Y27632 was used to pretreat the phagocytic cells or cancer cells for 1 hour, and the phagocytic activity was analyzed using the same procedure described in Example 1-1. […]
Phagocytic activity of bone marrow-derived dendritic cells (BMDCs) differentiated from bone marrow cells against cancer cells was analyzed by treating the BMDCs with ROCK inhibitor Y27632 (30 μM) for 1 hour and then co-cultivating with CT26.CL25 colon cancer cells pretreated with 25 μM of doxorubicin for 24 hours or B16F10-Ova malignant melanoma cells treated with 30 μM of Y27632 for 1 hour and then treated with 2.5 μM doxorubicin (Sigma-Aldrich, USA) for 24 hours by pHrodo SE (Thermo Fisher Scientific, USA) staining (BMDC:Dox-treated B16F10-Ova=1:1). As shown in FIGS. 16A to 16D, it was confirmed that the phagocytic activity of BMDCs induced by doxorubicin were increased in the Y27632-treated group compared to the control group (FIGS. 16A to 16D). […]

[2] = system: macrophages (F4/80+ cells) and dendritic cells (CD11c+ cells); test: In vivo phagocytosis of injected apoptotic thymocytes by spleen phagocytes; design: species or system mice; details: 10 mg/kg intraperitoneally; spleen after 1 hour
Method: The present inventors investigated whether the phagocytosis caused by the ROCK inhibitor could be enhanced not only in vitro but also in vivo. For this purpose, thymocytes stained with CFSE (carboxyfluorescein succinimidyl ester, Thermo Fisher Scientific, Inc., USA) and in which apoptosis was induced by 1 μM dexamethasone were injected to the blood vessel of mice who were pre-injected with 10 mg/kg of Y27632 intraperitoneally. After 1 hour, the spleen was extracted from the mice and the spleen was single celled. The phagocytic activities of macrophages (F4/80^+ cells) and dendritic cells (CD11c^+ cells) against apoptotic thymocytes were analyzed (FIGS. 7B and 7C).

[3] = system: CT26.CL25 colon cancer cells expressing mCherry; test: Phagocytosis of mCherry-expressing cancer cells in the tumor model; type: in vivo, mice; details: conditions of Example 2-3
Method: In order to confirm whether or not the ROCK inhibitor Y27632 induces cancer cell phagocytosis in a tumor model, CT26.CL25 colon cancer cells expressing mCherry were prepared and used to create a tumor model by injecting tumor cells into mice, and it was analyzed whether phagocytosis of macrophages and dendritic cells against cancer cells expressing mCherry was increased under the same conditions as in Example 2-3.

CT26.CL25 cells = test: Anti-cancer immune memory (tumor removal and re-injection); type: in vivo, Balb/c wild-type mice; details: 10 mg/kg intravenous; compared with PBS control
Method: To confirm whether the ROCK inhibitor induces anti-cancer immune memory, CT26.CL25 cells (1×10^6 cells) were injected into the right flank of Balb/c wild-type mice to induce cancer, and then 10 mg/kg of Y27632 was administered continuously for two consecutive days via intravenous injection, followed by a day of rest as a cycle, followed by 3 cycles of 3-day intervals. After 22nd days from the day of cancer injection, the induced tumor was removed by surgery. One week later, the same cancer cells (7×10^6 cells) were injected to the other flank and the growth of tumor was investigated (FIG. 12A).

OT-1 T cells = test: Proliferation of injected CFSE-stained OT-1 T cells in B16F10-Ova-bearing mice; type: in vivo; details: 3 days after injection
Method: Specifically, Y27632 was administered to the B16F10-Ova-bearing cancer model mice according to the administration schedule described in Example 2-1, and OT-1 T cells stained with CFSE (carboxyfluorescein succinimidyl ester, Thermo Fisher Scientific, Inc., USA) were injected into the cancer model mice and the degree of proliferation of T cells was confirmed 3 days later (FIG. 14A).

[4] = system: bone marrow-derived dendritic cells (BMDCs); test: Phagocytosis of cancer cells by bone marrow-derived dendritic cells in vitro; type: cell-based, mice; details: 30 μM, 1 hour

In the case of `C[C@@H](N)[C@H]1CC[C@H](C(=O)Nc2ccncc2)CC1` [Y27632], the “phagocytic activity of BMDCs against doxorubicin-treated cancer cells” value ([1]; 30 μM, 1 hour, CT26.CL25 (25 μM doxorubicin) or B16F10-Ova (2.5 μM doxorubicin), 24 hours) is reported as “increased”, the “phagocytic ability of dendritic cells against cancer cells” value ([1]; 30 μM, 1 hour, co-culture with CT26.CL25 or B16F10-OVA about 2 hours) is reported as “significantly increased” and the “phagocytic activity of BMDCs against cancer cells (pHrodo-SE dye)” value ([1]; CT26.CL25 colon cancer cells) is reported as “improved”. For the same compound, the “phagocytosis by BMDCs against cancer cells, cancer cells pre-treated” value ([1]; cancer cells pretreated for 1 hour) was “not increased”, the “phagocytosis against cancer cells, BMDCs pretreated” value ([1]; phagocytic cells pretreated for 1 hour) was “increased” and the “time for which BMDCs maintain phagocytosis after the pretreatment” value ([1]; pretreated 1 hour, then removed, CT26.CL25 and B16F10-Ova) was ≤ 1 h. The “phagocytosis of spleen dendritic cells against apoptotic thymocytes” value [2] was “significantly enhanced”, the “phagocytosis of spleen macrophages against apoptotic thymocytes” value [2] was “significantly enhanced” and the “phagocytosis of tumor dendritic cells against cancer cells expressing mCherry” value [3] was “increased about two-fold”. The “phagocytosis of tumor macrophages against cancer cells expressing mCherry” value [3] was “increased about two-fold”, the “proportion of tumor-free mice after re-injection of cancer cells” value (CT26.CL25 cells) was “significantly increased” and the “proliferation of OT-1 T cells” value (OT-1 T cells) was “significantly increased”. The “phagocytosis of BMDCs against non-immunogenic apoptosis-induced cancer cells by cisplatin” value ([4]; CT26.CL25 or B16F10-Ova) was “increased similarly to that by doxorubicin treatment” and the “phagocytosis of BMDCs against necrosis-induced cancer cells” value ([4]; necrosis at 55° C. for 30 minutes) was “increased similarly to that by doxorubicin treatment”.
